Experiment [1] deals with T1, mouse SLO3 (KSper currents in mouse sperm) (Mus musculus, UniProt O54982).
T1 construct: sperm were isolated from the corpus epididymis by swim-out; endogenous in cells; host or cells: C57Bl/6 mouse corpus epididymal sperm
T1 sequence (O54982 1-1121): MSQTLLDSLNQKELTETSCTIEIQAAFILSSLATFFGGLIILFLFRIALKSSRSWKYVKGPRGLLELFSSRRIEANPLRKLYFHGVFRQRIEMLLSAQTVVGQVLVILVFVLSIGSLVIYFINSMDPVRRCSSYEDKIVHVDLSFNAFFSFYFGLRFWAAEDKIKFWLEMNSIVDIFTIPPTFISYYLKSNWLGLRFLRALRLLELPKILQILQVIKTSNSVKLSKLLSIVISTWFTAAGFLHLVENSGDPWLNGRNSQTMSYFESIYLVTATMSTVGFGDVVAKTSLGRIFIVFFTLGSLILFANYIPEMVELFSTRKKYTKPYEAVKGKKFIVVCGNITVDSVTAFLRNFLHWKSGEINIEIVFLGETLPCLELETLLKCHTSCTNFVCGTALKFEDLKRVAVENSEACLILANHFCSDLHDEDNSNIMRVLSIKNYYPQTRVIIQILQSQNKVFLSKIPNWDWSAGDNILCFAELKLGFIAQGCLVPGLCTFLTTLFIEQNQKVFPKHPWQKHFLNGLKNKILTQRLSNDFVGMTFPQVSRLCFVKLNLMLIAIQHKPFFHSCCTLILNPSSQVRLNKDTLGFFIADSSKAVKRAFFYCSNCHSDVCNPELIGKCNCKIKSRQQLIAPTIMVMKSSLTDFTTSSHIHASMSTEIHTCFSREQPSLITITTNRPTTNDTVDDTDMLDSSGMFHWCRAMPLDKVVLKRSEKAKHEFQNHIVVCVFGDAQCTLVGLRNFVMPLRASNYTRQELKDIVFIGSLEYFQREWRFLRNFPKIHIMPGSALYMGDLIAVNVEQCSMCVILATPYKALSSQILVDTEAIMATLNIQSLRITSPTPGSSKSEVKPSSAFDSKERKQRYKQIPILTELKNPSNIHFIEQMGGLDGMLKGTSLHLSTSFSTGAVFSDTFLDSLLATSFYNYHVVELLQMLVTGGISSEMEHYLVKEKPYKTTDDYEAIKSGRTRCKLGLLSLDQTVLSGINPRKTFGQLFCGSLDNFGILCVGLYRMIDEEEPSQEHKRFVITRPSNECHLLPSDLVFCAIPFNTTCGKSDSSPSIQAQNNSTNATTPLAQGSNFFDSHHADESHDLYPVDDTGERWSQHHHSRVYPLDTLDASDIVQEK
T1 sequence (Q5M8M9 24-314 partner): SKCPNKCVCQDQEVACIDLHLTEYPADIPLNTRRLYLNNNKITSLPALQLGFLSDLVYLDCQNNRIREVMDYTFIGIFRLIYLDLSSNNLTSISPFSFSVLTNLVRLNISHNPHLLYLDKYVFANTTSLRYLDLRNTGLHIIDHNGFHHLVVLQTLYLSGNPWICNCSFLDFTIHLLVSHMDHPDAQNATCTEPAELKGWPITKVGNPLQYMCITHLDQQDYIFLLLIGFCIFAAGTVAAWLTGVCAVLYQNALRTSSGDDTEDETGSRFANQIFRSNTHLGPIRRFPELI
Kind of experiment: Whole-cell recording of KSper currents in mouse sperm. The experiment is classed as cell-based. The conditions noted are these: for Hill coefficient: mouse sperm KSper currents; for IC50: whole-cell recordings from mouse sperm. Here is the method:
Electrophysiology: C57Bl/6 sexually mature male mice (60–90 days old) were euthanized by inhalation of CO2 followed by cervical dislocation and sperm were isolated from the corpus epididymis by swim-out. Then the sperm suspension was collected and centrifuged (500×g, 6 min) twice to purify the sperm. HEPES-buffered saline (HS) was used for sperm swim-out and storage. It contained (in mM): 135 NaCl, 5 KCl, 1 MgSO4, 2 CaCl2, 20 HEPES, 5 glucose, 10 lactic acid, and 1 Na·pyruvate at pH 7.4. The sperm suspension was kept at room temperature (∼22 °C) for 4–6 h until recording. All animal husbandry and experimental procedures were approved by the Animal Studies Committee of the Washington University in St. Louis School of Medicine.
Voltage-clamp recordings were performed using an Axopatch 200B amplifier (Molecular Devices). Recordings were filtered at 5 kHz with the internal filter of the amplifier and digitized at 50 kHz using a Digidata 1550B digitizer (Molecular Devices). Recording pipettes were pulled from borosilicate glass with tip resistances of 3–8 MΩ after filling with pipette solution containing (in mM): 140 KMES, 1 EGTA, 10 HEPES, pH 7.4 with KOH. Bath solutions contained (in mM): 135 NaMES, 5 KMES, 2 MgCl2, and 10 HEPES, pH 7.4 with NaOH. Experiments were performed at room temperature (∼22 °C). Whole-cell currents were evoked from a holding potential of −60 mV in steps from −80 to +100 mV in 10 mV increments. Test compounds were prepared daily from a 10 mM stock solution (in DMSO).
For mouse sperm recordings, the pipettes were fire-polished with Microforge MF-830 (Narishige, Japan) to reach tip resistances of 8–12 MΩ. The giga-ohm (GΩ) seals were formed between the glass micropipette and the sperm cytoplasmic droplet in HS solution. Break-in to whole-cell mode was achieved by applying short (1–5 ms) voltage pulses of 488–888 mV.
Data were analyzed with a pClamp 10.6 (Molecular Devices). VU6047606 and VU6032735 inhibition dose–response relationships were fit by the Hill equation in OriginPro 7.5 (OriginLab Corporation): R=1/1+(C/IC50)^n+Ioff , in which R is fractional unblock, C is compound concentration, IC50 is the half inhibition concentration, n is the Hill coefficient, and I off is an offset item for leak current. Error bars in the figures represent the SDs. Each data point is averaged from at least 5 measurements. Curve-fitting results are reported as the fitted values with standard error, which was estimated by OriginPro according to the Error Propagation formula.

Experiment [2] concerns the target Adenosine A2A (Homo sapiens, UniProt P29274). Nature of the experiment: LeadProfilingScreen radioligand binding.
Experiment [3] addresses Androgen (Testosterone) (Homo sapiens, UniProt P10275). Kind of experiment: LeadProfilingScreen radioligand binding.
In experiment [4] the test system is Calcium Channel L-Type, Benzothiazepine. Nature of the experiment: LeadProfilingScreen radioligand binding. Further details: species or system rat.
In experiment [5] the target is Dopamine D2S (Homo sapiens, UniProt P14416). Nature of the experiment: LeadProfilingScreen radioligand binding.
Dopamine D2S, sequence (P14416 1-414 isoform P14416-2): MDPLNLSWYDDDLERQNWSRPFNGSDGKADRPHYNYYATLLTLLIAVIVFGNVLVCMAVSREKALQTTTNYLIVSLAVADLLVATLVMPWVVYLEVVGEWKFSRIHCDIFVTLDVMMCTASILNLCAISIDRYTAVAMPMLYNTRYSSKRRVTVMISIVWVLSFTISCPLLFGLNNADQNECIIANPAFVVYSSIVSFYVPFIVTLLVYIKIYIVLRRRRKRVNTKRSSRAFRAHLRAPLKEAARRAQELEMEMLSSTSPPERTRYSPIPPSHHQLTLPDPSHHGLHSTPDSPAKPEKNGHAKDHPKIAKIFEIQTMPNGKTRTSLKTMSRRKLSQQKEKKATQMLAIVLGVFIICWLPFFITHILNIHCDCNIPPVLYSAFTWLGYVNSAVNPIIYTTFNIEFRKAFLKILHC
Experiment [6] has as its target Dopamine D3 (Homo sapiens, UniProt P35462). Kind of experiment: LeadProfilingScreen radioligand binding.
In experiment [7] the target is Melatonin MT1 (Homo sapiens, UniProt P48039). Kind of experiment: LeadProfilingScreen radioligand binding.
Melatonin MT1, sequence (P48039 whole entry): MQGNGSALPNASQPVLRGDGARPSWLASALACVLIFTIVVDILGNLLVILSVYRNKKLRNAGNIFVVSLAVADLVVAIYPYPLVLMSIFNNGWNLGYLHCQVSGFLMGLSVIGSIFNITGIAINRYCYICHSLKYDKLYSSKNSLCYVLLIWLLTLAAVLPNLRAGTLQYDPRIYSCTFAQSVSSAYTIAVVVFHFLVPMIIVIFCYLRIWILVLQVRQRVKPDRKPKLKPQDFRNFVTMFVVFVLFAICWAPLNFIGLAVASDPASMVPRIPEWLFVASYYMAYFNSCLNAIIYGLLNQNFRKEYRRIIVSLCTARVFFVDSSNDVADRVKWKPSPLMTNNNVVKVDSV
Experiment [8] has as its target Muscarinic M2 (Homo sapiens, UniProt P08172). Nature of the experiment: LeadProfilingScreen radioligand binding.
Experiment [9] relates to Purinergic P2X. Nature of the experiment: LeadProfilingScreen radioligand binding. Further details: species or system rat.

The Hill coefficient is a measure of the steepness of the concentration-response curve. As a reminder, the IC50 is the point on the concentration scale where inhibition reaches its midpoint. The inhibition is the change of the read-out against control, counted positive when it falls. One may read the % inhibition as the change of the read-out against control, counted positive when it falls.

SMILES strings stand for the structures. Where two headings read alike, the source gives them in different places.

Muscarinic M2, sequence (P08172 whole entry): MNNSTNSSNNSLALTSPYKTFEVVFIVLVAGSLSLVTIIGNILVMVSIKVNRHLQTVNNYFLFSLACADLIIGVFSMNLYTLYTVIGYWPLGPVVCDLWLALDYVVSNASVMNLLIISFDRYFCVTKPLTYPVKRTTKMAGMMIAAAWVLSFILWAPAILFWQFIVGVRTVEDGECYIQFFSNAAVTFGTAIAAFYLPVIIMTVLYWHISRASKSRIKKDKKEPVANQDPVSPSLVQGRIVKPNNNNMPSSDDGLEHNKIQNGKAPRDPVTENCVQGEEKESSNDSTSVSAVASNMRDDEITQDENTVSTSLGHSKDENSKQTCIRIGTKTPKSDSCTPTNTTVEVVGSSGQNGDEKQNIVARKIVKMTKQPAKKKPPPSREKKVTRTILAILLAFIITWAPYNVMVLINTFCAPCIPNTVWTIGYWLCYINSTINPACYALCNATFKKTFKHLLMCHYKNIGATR
Adenosine A2A, sequence (P29274 whole entry): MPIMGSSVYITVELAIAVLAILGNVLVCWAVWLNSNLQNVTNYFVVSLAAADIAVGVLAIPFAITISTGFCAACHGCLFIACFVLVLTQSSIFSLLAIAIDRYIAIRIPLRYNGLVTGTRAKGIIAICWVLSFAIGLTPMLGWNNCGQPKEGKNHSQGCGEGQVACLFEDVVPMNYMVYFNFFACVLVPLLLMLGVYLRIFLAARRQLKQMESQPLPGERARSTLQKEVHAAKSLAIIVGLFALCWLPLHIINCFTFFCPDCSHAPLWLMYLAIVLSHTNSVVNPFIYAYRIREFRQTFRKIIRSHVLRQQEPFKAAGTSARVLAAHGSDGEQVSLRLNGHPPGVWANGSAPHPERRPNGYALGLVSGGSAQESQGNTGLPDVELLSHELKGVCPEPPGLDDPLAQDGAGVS
Dopamine D3, sequence (P35462 whole entry): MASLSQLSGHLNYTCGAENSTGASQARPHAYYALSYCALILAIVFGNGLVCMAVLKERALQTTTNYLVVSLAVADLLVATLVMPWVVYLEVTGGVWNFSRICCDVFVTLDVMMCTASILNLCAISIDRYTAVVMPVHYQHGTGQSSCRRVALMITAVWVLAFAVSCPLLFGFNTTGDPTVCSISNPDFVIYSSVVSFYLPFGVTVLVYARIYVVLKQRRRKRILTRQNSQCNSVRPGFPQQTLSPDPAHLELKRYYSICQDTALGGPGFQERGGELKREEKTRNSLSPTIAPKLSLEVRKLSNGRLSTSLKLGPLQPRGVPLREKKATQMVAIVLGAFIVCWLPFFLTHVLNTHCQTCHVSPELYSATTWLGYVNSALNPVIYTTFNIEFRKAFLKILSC
Androgen (Testosterone), sequence (P10275 whole entry): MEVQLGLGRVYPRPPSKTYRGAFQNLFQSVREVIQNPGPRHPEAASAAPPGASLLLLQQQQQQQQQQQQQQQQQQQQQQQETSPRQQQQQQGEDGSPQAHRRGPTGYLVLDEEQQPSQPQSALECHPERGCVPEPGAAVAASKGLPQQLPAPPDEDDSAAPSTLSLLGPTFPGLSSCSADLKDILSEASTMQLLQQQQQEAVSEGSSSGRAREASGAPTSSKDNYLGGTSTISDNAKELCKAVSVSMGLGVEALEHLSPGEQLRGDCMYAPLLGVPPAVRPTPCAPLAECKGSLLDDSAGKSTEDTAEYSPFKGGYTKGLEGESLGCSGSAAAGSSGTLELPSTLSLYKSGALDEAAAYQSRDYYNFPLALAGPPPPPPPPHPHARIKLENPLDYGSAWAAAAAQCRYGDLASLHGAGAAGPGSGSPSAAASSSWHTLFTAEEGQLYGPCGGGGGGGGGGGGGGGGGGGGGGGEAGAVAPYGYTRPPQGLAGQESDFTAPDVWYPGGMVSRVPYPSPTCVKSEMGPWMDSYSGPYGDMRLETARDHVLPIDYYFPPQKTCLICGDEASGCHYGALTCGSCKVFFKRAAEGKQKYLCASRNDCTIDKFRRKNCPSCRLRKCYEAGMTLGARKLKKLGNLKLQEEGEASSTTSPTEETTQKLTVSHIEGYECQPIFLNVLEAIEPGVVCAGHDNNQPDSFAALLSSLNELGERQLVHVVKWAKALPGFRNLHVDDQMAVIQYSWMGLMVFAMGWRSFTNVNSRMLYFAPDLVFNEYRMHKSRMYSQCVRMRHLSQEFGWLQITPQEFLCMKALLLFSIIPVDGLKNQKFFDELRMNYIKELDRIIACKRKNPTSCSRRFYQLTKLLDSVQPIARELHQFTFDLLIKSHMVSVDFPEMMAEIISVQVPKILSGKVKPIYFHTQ

Consider `O=C(c1ccc(OCc2ccc(OC(F)(F)F)cc2)cc1)N1CCN(c2ccc(C(F)(F)F)cn2)CC1` [VU6032735], for which the “fold more potent than VU6047606 on mouse SLO3 currents” value in [1] (mouse sperm) is given as approximately 1.6 fold. In experiment [1], the Hill coefficient is given as 0.78 ± 0.07. Further, the IC50 in [1] (read-out: mSLO3 IC50 (mouse sperm)) came out at 910 nM. Further, the inhibition at 10 µM in [2] is -6%; in [3], 1%; in experiment [5], -2%; in experiment [6] it was 3%; in experiment [7], 8%; in experiment [8], -10%. Further, the results for the “% inhibition at 10 μM” value in [4] and in experiment [9] were 67% and 1%, respectively.

`Cc1cc(Cl)cc2sc(O[C@H]3CCN(C(=O)CCCS(=O)(=O)c4cccc(Br)c4)C[C@H]3F)nc12` [VU6047606] yielded a Hill coefficient in experiment [1] of 1.02 ± 0.12. Moreover, in experiment [1] (currents at +100 mV, read-out: mSLO3 IC50 (mouse sperm KSper currents)), the IC50 was found to be 1470 nM. In addition, the inhibition at 10 µM in experiment [2] is 0%; in [3], 8%; in [5] it was -7%; in experiment [6], 19%; in experiment [7], 19%; in [8], -6%. Further, the “% inhibition at 10 μM” value in experiment [4] amounted to 49%; in experiment [9], 1%.

The values above are taken from paper PMC12441834, “Highly Potent and Subtype-Selective Sperm-Specific Potassium Channel SLO3 Inhibitors Display High Tissue Exposure in the Murine Female Reproductive Tract” (ACS Pharmacology & Translational Science, 2025).
